“And” between values parts separate entries of the source, which are not always exact repeats. Identical values can stand only once. Blank lines part the entries; values can stand above or below the molecule they belong to.
Assays:
[1] = Calculated versus measured sweetness of GSG / steviol glycoside compositions from sweetness curves (synergistic effect); parameters: species or system human; details: for Calculated SE of RA97: citric acid pH 3.8
Protocol: The sweetness of GSG-RA50 and RA97 compositions at varying concentrations was measured according to the sweetness curve (FIG. 9), and the combined sweetness of each composition of GSG-RA50 and RA97 was calculated and compared with the measured value in Table 19.
Calculated SE (ppm sucrose) of GSG-RA50 per ppm=calculated SE of GSG-RA50/concentration of GSG-RA50. Measured sweetness (ppm sucrose) of GSG-RA50 per ppm=(Measured SE−Calculated SE of RA97)/concentration of GSG-RA50.
The sweetness of GSG-RA95 and rebaudioside A, 97% purity (RA) RA97 compositions at varying concentrations was measured according to the sweetness curve (FIG. 13), and the combined sweetness of each composition of GSG-RA95 and RA97 was calculated and compared with the measured value in Table 23.
Calculated sweetness (ppm sugar) of GSG-RA50 per ppm=calculated SE of GSG-RA50/concentration of GSG-RA50. Measured sweetness (ppm sugar) of GSG-RA50 per ppm=(Measured SE-calculated SE of RA97)/concentration of GSG-RA50.
Calculated sweetness (ppm sugar) of GSG-RA20 plus RA97 per ppm=calculated SE of GSG-RA20 plus RA97/concentration of GSG-RA20 plus RA97
Measured sweetness (ppm sugar) of GSG-RA20 plus RA97 per ppm=(Measured SE of GSG-RA20 plus RA97−sugar concentration)/concentration of GSG-RA20 plus RA97

[2] = Evaluation of taste profile: sugar like, bitterness, aftertaste, lingering scored 0-5 by sensory panel; format: in vivo, human
Protocol: 1. The components where mixed and then dissolved in aqueous citric acid (pH 3.8) with ultrasound at room temperature and left to sit for 30 min.
For evaluation of taste profile, the samples were tested and were scored 0-5 according to the increasing sugar like, bitterness, aftertaste and lingering taste profiles. The results were recorded as the mean value of the results provided by the panel.

[3] = Solubility of spray-dried GSG-RA20 / steviol glycoside 1:1 compositions (Example 56); format: physicochemical
Protocol: GSG-RA20 was mixed with RA, RB, RD or stevioside as the ratio of 1:1 by weight so as to obtain a mixture, a certain amount of solvent, such as water, ethanol/water mixture, was added into the obtained mixture, heated to a certain temperature until the mixture was completely dissolved, and the temperature was kept for an hour. The solution was treated by spray drying to obtain the composition comprising GSG and SG.

[4] = background; cited from earlier work
[5] = RA97 400 ppm (control), citric acid pH 3.8
[6] = total solid content 350 ppm, panel score
[7] = 0.01 g of each component in 10 ml water

Stable time [3, 7]: insoluble
Molecule: C=C1C[C@@]23CC[C@H]4[C@@](C)(CCC[C@@]4(C)C(=O)O[C@@H]4O[C@H](CO)[C@@H](O)[C@H](O)[C@H]4O[C@@H]4O[C@H](CO)[C@@H](O)[C@H](O)[C@H]4O)[C@@H]2CC[C@]1(O[C@@H]1O[C@H](CO)[C@@H](O)[C@H](O[C@@H]2O[C@H](CO)[C@@H](O)[C@H](O)[C@H]2O)[C@H]1O[C@@H]1O[C@H](CO)[C@@H](O)[C@H](O)[C@H]1O)C3 [Rebaudioside D]

Stable time [3, 7]: insoluble
Molecule: Rebaudioside B

Continued, molecule first:

Molecule: C=C1C[C@@]23CC[C@H]4[C@@](C)(CCC[C@@]4(C)C(=O)O[C@@H]4O[C@H](CO)[C@@H](O)[C@H](O)[C@H]4O)[C@@H]2CC[C@]1(O[C@@H]1O[C@H](CO)[C@@H](O)[C@H](O[C@@H]2O[C@H](CO)[C@@H](O)[C@H](O)[C@H]2O)[C@H]1O[C@@H]1O[C@H](CO)[C@@H](O)[C@H](O)[C@H]1O)C3 [RA97, Rebaudioside A]
Calc. SE of RA97 ([1]; RA97 50 ppm, read from sweetness curve): 1.5%
Calc. SE of RA97 ([1]; RA97 50 ppm, with GSG-RA90, 350 ppm total solids): 1.5%
Calc. SE of RA97 ([1]; RA97 100 ppm, read from sweetness curve): 3% and 3.2%
Calculated SE of RA97 ([1]; RA97 100 ppm): 3%
Calc. SE of RA97 ([1]; RA97 100 ppm, with GSG-RA90, 350 ppm total solids): 3.2%
Calc. SE of RA97 ([1]; RA97 100 ppm, with GSG-RA95, 200 ppm total solids): 3%
Calc. SE of RA97 ([1]; RA97 150 ppm, read from sweetness curve): 4.2% and 4%
Calculated SE of RA97 ([1]; RA97 150 ppm): 4.20%
Calc. SE of RA97 ([1]; RA97 150 ppm, with GSG-RA90, 350 ppm total solids): 4%
Calc. SE of RA97 ([1]; RA97 150 ppm, with GSG-RA95, 200 ppm total solids): 4.2%
Calc. SE of RA97 ([1]; RA97 200 ppm, read from sweetness curve): 5%
Calculated SE of RA97 ([1]; RA97 200 ppm): 5%
Calc. SE of RA97 ([1]; RA97 200 ppm, with GSG-RA90, 350 ppm total solids): 5%
Calc. SE of RA97 ([1]; RA97 250 ppm, read from sweetness curve): 6%
Calculated SE of RA97 ([1]; RA97 250 ppm): 6%
Calc. SE of RA97 ([1]; RA97 250 ppm, with GSG-RA90, 350 ppm total solids): 6%
Calc. SE of RA97 ([1]; RA97 300 ppm, read from sweetness curve): 6.9% and 7%
Calculated SE of RA97 ([1]; RA97 300 ppm): 6.90%
Calc. SE of RA97 ([1]; RA97 300 ppm, with GSG-RA90, 350 ppm total solids): 6.9%
Calc. SE of RA97 ([1]; RA97 300 ppm, with GSG-RA95, 500 ppm total solids): 7%
Calc. SE of RA97 ([1]; RA97 400 ppm, read from sweetness curve): 8.25%
Calc. SE of RA97 ([1]; RA97 400 ppm, with GSG-RA95, 500 ppm total solids): 8.25%
Measured SE of the composition ([1]; RA97 alone, 350 ppm, no GSG): 8%
Calculated SE of the single component (steviol glycoside composition or GSG) alone ([1]; component at 150 ppm): 4.00%
Calculated SE of the single component (steviol glycoside composition or GSG) alone ([1]; component at 200 ppm): 5.00%
Calculated SE of the single component (steviol glycoside composition or GSG) alone ([1]; component at 250 ppm): 6.00%
Aftertaste [2, 5]: 3
Bitterness [2, 5]: 2
Lingering [2, 5]: 4
Sugar like [2, 5]: 3
Aftertaste [2, 6]: 3
Bitterness [2, 6]: 2
Lingering [2, 6]: 4
Sugar like [2, 6]: 3

Molecule: C=C1C[C@@]23CC[C@H]4[C@@](C)(CCC[C@@]4(C)C(=O)O[C@@H]4O[C@H](CO)[C@@H](O)[C@H](O)[C@H]4O)[C@@H]2CC[C@]1(O[C@@H]1O[C@H](CO)[C@@H](O)[C@H](O[C@@H]2O[C@H](CO)[C@@H](O)[C@H](O)[C@H]2O)[C@H]1O[C@@H]1O[C@H](CO)[C@@H](O)[C@H](O)[C@H]1O)C3 [Rebaudioside A]
Stable time ([3]; 1 g in 10 ml water): 2 h

Molecule: C=C1C[C@@]23CC[C@H]4[C@@](C)(CCC[C@@]4(C)C(=O)O[C@@H]4O[C@H](CO)[C@@H](O)[C@H](O)[C@H]4O)[C@@H]2CC[C@]1(O[C@@H]1O[C@H](CO)[C@@H](O)[C@H](O)[C@H]1O[C@@H]1O[C@H](CO)[C@@H](O)[C@H](O)[C@H]1O)C3 [Stevioside]
times sweeter than sugar [4]: approximately 300 times

Source: US11571011B2, “Compositions of steviol multiglycosylated derivatives and stevia components” (SWEET GREEN FIELDS USA LLC, priority 2015, dated 2023)
